Tested on: pcy mice
Experiment: Effect of tolvaptan and octreotide, alone or combined, on kidney weight of pcy mice (PKD model animals)
Assay type: in vivo
Conditions: male pcy mice, 0.03% tolvaptan in feed and/or octreotide 300 μg/kg × 2/day sc; for kidney weight suppressive effect compared to the pcy control group: 15 weeks of age, Dunnett's test; for Kidney weight (% body weight) Mean ± SE: 15 weeks old at autopsy, treated from 5 to 15 weeks of age, pcy control 8.02 ± 0.66, normal DBA 1.53 ± 0.04
Method: Individual or combined effects of tolvaptan, which is a vasopressin receptor antagonist, and octreotide, which is a somatostatin analogue, against polycystic kidney disease were evaluated using pcy mice, which are PKD model animals.
The aforementioned pcy mice are adult polycystic kidney disease model mice, and the mode of inheritance is autosomal recessive. […] It has been reported that compared to wild-type mice, pcy mice have increased renal cAMP levels and elevated renal mRNA levels of aquaporin-2 and vasopressin V2 receptor (V2R). For details, see Non-patent Literature (NPL) 1.
Based on the body weight at 4 weeks of age and the renal volume measured by MRI, the pcy mice (male) were divided into the following four groups (each group: 9 mice):
(2) a group receiving a feed containing 0.03% tolvaptan;
(3) a group receiving octreotide (300 μg/kg×2/day sc); and
(4) a group receiving a feed containing 0.03% tolvaptan, and octreotide (300 μg/kg×2/day sc).
As normal control mice, DBA/2JJcl mice (5 mice) were used. A 0.03% tolvaptan-containing MF feed was given to the groups receiving tolvaptan. A MF feed not containing tolvaptan was given to the other groups, i.e., the control group and the group receiving octreotide alone. Sandostatin® subcutaneous injection (100 μg/ml) was diluted with physiological saline and subcutaneously injected in an amount of 300 μg/kg/10 ml to the group receiving octreotide twice a day, morning and evening.
The drug treatment was started from 5 weeks of age, and continued until 15 weeks of age. Urine was collected from each mouse at 14 weeks of age using metabolic cages for 19 hours, and urine volume and urinary albumin excretion were measured.
The DBA control mice and pcy mice were sacrificed under isoflurane anesthesia at 15 weeks of age to collect their blood, and right and left kidneys. Plasma parameters were measured from the obtained blood, and the weight of right and left kidneys was measured.

Row | Molecule | kidney weight suppressive effect compared to the pcy control group | Kidney weight (% body weight) Mean ± SE [% body weight]
1 | Cc1ccccc1C(=O)Nc1ccc(C(=O)N2CCCC(O)c3cc(Cl)ccc32)c(C)c1 (stereo not shown) [tolvaptan, 7-chloro-5-hydroxy-1-[2-methyl-4-(2-methylbenzoylamino)benzoyl]-2,3,4,5-tetrahydro-1H-benzoazepine] | did not exhibit significant kidney weight suppressive effects | 7.28 ± 0.84
2 | (−)-D-phenylalanyl-L-cysteinyl-L-phenylalanyl-D-tryptophyl-L-lysyl-L-threonyl-N-[(1R,2R)-2-hydroxy-1-(hydroxymethyl)propyl]-L-cysteinamide cyclic (2-47) disulfide [octreotide] | did not exhibit significant kidney weight suppressive effects | 6.68 ± 0.65
